Residue numbers refer to the chain shown, from its start.
Key:
[1] = biological target: T1, D39G mutant EAG1 channels (Mus musculus, UniProt Q60603, D39G); assay: TEVC recording, imipramine inhibition, D39G mutant; assay type: cell-based; settings: D39G mutant EAG1 channel, +50 mV
T1 construct: expressed in transfected cells; host or cells: Xenopus laevis oocytes injected with cRNA
T1 sequence (Q60603 1-989 D39G): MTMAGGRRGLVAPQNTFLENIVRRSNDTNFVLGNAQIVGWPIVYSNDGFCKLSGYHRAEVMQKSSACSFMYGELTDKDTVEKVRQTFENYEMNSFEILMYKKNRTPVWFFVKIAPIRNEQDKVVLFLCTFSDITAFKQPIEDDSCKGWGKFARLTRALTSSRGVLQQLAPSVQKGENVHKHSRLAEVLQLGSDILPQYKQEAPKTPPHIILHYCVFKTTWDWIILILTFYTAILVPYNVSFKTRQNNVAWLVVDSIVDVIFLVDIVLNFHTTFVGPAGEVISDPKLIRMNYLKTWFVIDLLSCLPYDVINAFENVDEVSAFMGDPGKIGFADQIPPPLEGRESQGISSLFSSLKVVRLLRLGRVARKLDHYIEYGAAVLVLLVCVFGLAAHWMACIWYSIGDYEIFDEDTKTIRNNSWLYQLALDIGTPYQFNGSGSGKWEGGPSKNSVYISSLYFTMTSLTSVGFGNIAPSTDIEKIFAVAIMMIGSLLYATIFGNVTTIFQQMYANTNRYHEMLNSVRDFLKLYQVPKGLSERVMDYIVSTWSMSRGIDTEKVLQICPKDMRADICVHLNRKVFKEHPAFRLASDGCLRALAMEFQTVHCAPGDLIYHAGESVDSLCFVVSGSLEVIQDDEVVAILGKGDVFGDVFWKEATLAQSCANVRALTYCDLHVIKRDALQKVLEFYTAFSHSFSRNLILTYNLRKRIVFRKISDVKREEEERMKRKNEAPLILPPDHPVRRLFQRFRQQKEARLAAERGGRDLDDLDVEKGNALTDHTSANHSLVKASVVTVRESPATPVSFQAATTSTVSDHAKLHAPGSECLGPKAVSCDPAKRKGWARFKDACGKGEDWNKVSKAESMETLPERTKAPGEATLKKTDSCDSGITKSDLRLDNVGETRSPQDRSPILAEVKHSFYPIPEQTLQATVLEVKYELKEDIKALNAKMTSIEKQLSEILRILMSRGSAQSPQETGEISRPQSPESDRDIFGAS
Text: (§1) The cDNA encoding wild-type (WT) mouse EAG1 channels in pGH19 vector was kindly provided by G. Robertson (University of Wisconsin-Madison, Madison, WI). The mutant ΔPAS EAG1 channel in pGH19 with the deletion of the PAS domain residues 2 to 130 was generated by Bio Basic Inc and verified by DNA sequencing (Genewiz). Mutant EAG1 channels with single amino acid substitutions were generated by Genewiz and verified by DNA sequencing. cRNA was transcribed using the T7 mMessage mMachine kit (Thermo Fisher Scientific). Defolliculated Xenopus laevis oocytes were purchased from Ecocyte Bioscience or Xenopus1 and injected with the cRNA using a Nanoinject II oocyte injector (Drummond).
(§2) For EAG1 current recordings, oocytes were placed into a handmade chamber containing a bath solution for the current recording. The currents were recorded using a TEVC technique with OC-725C amplifier (Warner Instruments) and pClamp11 software (Molecular Devices). The signals were digitized using Digidata 1550 (Molecular Devices). Patch pipettes were pulled from borosilicate glass and had resistances of 0.7 to 1.5 MΩ. The recording (bath) solution contained 96 mM NaCl, 4 mM KCl, 0.1 mM CaCl2, 1.8 mM MgCl2, and 5 mM HEPES, pH 7.5. The pipette solution contained 3 M KCl. […]

[2] = biological target: T2, V80G mutant EAG1 channels (Mus musculus, UniProt Q60603, V80G); assay: TEVC recording, imipramine inhibition, V80G mutant; assay type: cell-based; settings: V80G mutant EAG1 channel, +50 mV
T2 construct: expressed in transfected cells; host or cells: Xenopus laevis oocytes injected with cRNA
T2 sequence (Q60603 1-989 V80G): T1 sequence (Q60603 1-989 D39G) with G39D, V80G
Text: as §1, §2

[3] = system: EAG1 channels; settings: HEK293, whole-cell configuration; read-out: IC50 for EAG1 currents recorded from HEK293 in the whole-cell configuration; cited from earlier work

## CN(C)CCCN1c2ccccc2CCc2ccccc21 [imipramine]
[1]
  IC50: 79.6 ± 5.4 µM
[2]
  IC50: 57.1 ± 3.1 µM
[3]
  IC50: ~2 µM
